pIC50: −log10 of the molar value.
Target: HDM2 protein (Homo sapiens, UniProt Q00987)
Assay: fluorescence polarization screening assay (FP IC50)
Format: binding
Conditions: class symbols
Procedure: The compounds were evaluated to determine activity at the HDM2 protein by known methods such as the fluorescence polarization screening assay that measures the inhibitory concentration that achieves 50% of maximal activity (FP IC50) and the dissociation constant for inhibitor binding (FP Ki). [Zhang et al., J. Analytical Biochemistry 331: 138-146 (2004)].

HDM2 protein, sequence (Q00987 whole entry): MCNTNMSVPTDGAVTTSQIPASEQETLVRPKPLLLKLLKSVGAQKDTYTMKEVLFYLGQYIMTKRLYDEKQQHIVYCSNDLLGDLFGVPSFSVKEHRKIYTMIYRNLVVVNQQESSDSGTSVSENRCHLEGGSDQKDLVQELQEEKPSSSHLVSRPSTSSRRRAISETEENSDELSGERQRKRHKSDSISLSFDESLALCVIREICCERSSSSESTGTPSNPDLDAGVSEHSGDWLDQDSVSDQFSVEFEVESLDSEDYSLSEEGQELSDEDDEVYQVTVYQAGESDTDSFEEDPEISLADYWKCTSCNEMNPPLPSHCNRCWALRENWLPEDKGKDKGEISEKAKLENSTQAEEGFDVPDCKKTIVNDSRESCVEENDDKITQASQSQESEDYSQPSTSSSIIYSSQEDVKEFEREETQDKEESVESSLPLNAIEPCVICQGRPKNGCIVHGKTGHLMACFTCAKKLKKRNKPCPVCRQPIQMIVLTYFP

Row | Structure (SMILES) | pIC50
1 | CCC[C@H]1N(C(=O)c2ncccc2C(F)(F)F)CCC[C@@]1(Oc1csc(C(F)(F)F)c1)C(=O)N1Cc2ccc(F)cc2C[C@@H]1CCC(=O)O [Compound A124, 3-[(3S)-6-fluoro-2-{[(2R,3S)-2-propyl-1-{[3-(trifluoromethyl)pyridin-2-yl]carbonyl}-3-{[5-(trifluoromethyl)thiophen-3-yl]oxy}piperidin-3-yl]carbonyl}-1,2,3,4-tetrahydroisoquinolin-3-yl]propanoic acid] | 7.00 to 9.00
2 | CCC[C@H]1N(C(=O)c2ncccc2C(F)(F)F)CCC[C@@]1(Oc1csc(C(F)(F)F)c1)C(=O)N1Cc2ccc(F)cc2C[C@H]1C(=O)O [Compound A125, (3S)-6-fluoro-2-{[(2R,3S)-2-propyl-1-{[3-(trifluoromethyl)pyridin-2-yl]carbonyl}-3-{[5-(trifluoromethyl)thiophen-3-yl]oxy}piperidin-3-yl]carbonyl}-1,2,3,4-tetrahydroisoquinoline-3-carboxylic acid] | 7.00 to 9.00
3 | CCC[C@H]1N(C(=O)c2ncccc2C(F)(F)F)CCC[C@@]1(Oc1csc(C(F)(F)F)c1)C(=O)N1Cc2ccc(F)cc2C[C@H]1CCC(=O)O [Compound A127, 3-[(3R)-6-fluoro-2-{[(2R,3S)-2-propyl-1-{[3-(trifluoromethyl)pyridin-2-yl]carbonyl}-3-{[5-(trifluoromethyl)thiophen-3-yl]oxy}piperidin-3-yl]carbonyl}-1,2,3,4-tetrahydroisoquinolin-3-yl]propanoic acid] | 7.00 to 9.00
4 | CCC[C@H]1N(C(=O)c2ncccc2C(F)(F)F)CCC[C@@]1(Oc1csc(C(F)(F)F)c1)C(=O)N1Cc2cc(F)ccc2C[C@H]1C(=O)O [Compound A128, (3S)-7-fluoro-2-{[(2R,3S)-2-propyl-1-{[3-(trifluoromethyl)pyridin-2-yl]carbonyl}-3-{[5-(trifluoromethyl)thiophen-3-yl]oxy}piperidin-3-yl]carbonyl}-1,2,3,4-tetrahydroisoquinoline-3-carboxylic acid] | 7.00 to 9.00
5 | CCC[C@H]1N(C(=O)c2ncccc2C(F)(F)F)CCC[C@@]1(Oc1csc(C(F)(F)F)c1)C(=O)N1Cc2ccc(Cl)cc2C[C@@H]1C(=O)O [Compound A129, (3R)-6-chloro-2-{[(2R,3S)-2-propyl-1-{[3-(trifluoromethyl)pyridin-2-yl]carbonyl}-3-{[5-(trifluoromethyl)thiophen-3-yl]oxy}piperidin-3-yl]carbonyl}-1,2,3,4-tetrahydroisoquinoline-3-carboxylic acid] | 7.00 to 9.00
6 | CCC[C@H]1N(C(=O)c2ncccc2C(F)(F)F)CCC[C@@]1(Oc1csc(C(F)(F)F)c1)C(=O)N1Cc2ccc(Cl)cc2C[C@@H]1CCC(=O)O [Compound A130, 3-[(3S)-6-chloro-2-{[(2R,3S)-2-propyl-1-{[3-(trifluoromethyl)pyridin-2-yl]carbonyl}-3-{[5-(trifluoromethyl)thiophen-3-yl]oxy}piperidin-3-yl]carbonyl}-1,2,3,4-tetrahydroisoquinolin-3-yl]propanoic acid] | 7.00 to 9.00
7 | CCC[C@H]1N(C(=O)c2ncccc2C(F)(F)F)CCC[C@@]1(Oc1csc(C(F)(F)F)c1)C(=O)N1Cc2ccc(F)cc2C[C@@H]1CCCCC(=O)O [Compound A131, 5-[(3S)-6-fluoro-2-{[(2R,3S)-2-propyl-1-{[3-(trifluoromethyl)pyridin-2-yl]carbonyl}-3-{[5-(trifluoromethyl)thiophen-3-yl]oxy}piperidin-3-yl]carbonyl}-1,2,3,4-tetrahydroisoquinolin-3-yl]pentanoic acid] | 7.00 to 9.00
8 | CCC[C@H]1N(C(=O)c2ncccc2C(F)(F)F)CCC[C@@]1(Oc1csc(C(F)(F)F)c1)C(=O)N1Cc2cc(F)ccc2C[C@@H]1CCC(=O)O [Compound A132, 3-[(3S)-7-fluoro-2-{[(2R,3S)-2-propyl-1-{[3-(trifluoromethyl)pyridin-2-yl]carbonyl}-3-{[5-(trifluoromethyl)thiophen-3-yl]oxy}piperidin-3-yl]carbonyl}-1,2,3,4-tetrahydroisoquinolin-3-yl]propanoic acid] | 7.00 to 9.00
9 | CCC[C@H]1N(C(=O)c2ncccc2C(F)(F)F)CCC[C@@]1(Oc1csc(C(F)(F)F)c1)C(=O)N1Cc2ccc(Cl)cc2C[C@@H]1C(C)CC(=O)O (stereo partly drawn) [Compound A133, 3-[(3R)-6-chloro-2-{[(2R,3S)-2-propyl-1-{[3-(trifluoromethyl)pyridin-2-yl]carbonyl}-3-{[5-(trifluoromethyl)thiophen-3-yl]oxy}piperidin-3-yl]carbonyl}-1,2,3,4-tetrahydroisoquinolin-3-yl]butanoic acid] | 7.00 to 9.00
10 | CCC[C@H]1N(C(=O)c2ncccc2C(F)(F)F)CCC[C@@]1(Oc1csc(C(F)(F)F)c1)C(=O)N1Cc2ccc(Br)cc2C[C@@H]1C(=O)O [Compound A134, (3R)-6-bromo-2-{[(2R,3S)-2-propyl-1-{[3-(trifluoromethyl)pyridin-2-yl]carbonyl}-3-{[5-(trifluoromethyl)thiophen-3-yl]oxy}piperidin-3-yl]carbonyl}-1,2,3,4-tetrahydroisoquinoline-3-carboxylic acid] | 7.00 to 9.00
11 | CCC[C@H]1N(C(=O)c2ncccc2C(F)(F)F)CCC[C@@]1(Oc1csc(C(F)(F)F)c1)C(=O)N1Cc2ccc(Cl)cc2C[C@@H]1CCC(=O)N(C)C [Compound A135, 3-[(3S)-6-chloro-2-{[(2R,3S)-2-propyl-1-{[3-(trifluoromethyl)pyridin-2-yl]carbonyl}-3-{[5-(trifluoromethyl)thiophen-3-yl]oxy}piperidin-3-yl]carbonyl}-1,2,3,4-tetrahydroisoquinolin-3-yl]-N,N-dimethylpropanamide] | 7.00 to 9.00
12 | CCC[C@H]1N(C(=O)c2ncccc2C(F)(F)F)CCC[C@@]1(Oc1csc(C(F)(F)F)c1)C(=O)N1Cc2ccc(Cl)cc2C[C@@H]1CCC(=O)NC [Compound A136, 3-[(3S)-6-chloro-2-{[(2R,3S)-2-propyl-1-{[3-(trifluoromethyl)pyridin-2-yl]carbonyl}-3-{[5-(trifluoromethyl)thiophen-3-yl]oxy}piperidin-3-yl]carbonyl}-1,2,3,4-tetrahydroisoquinolin-3-yl]-N-methylpropanamide] | 7.00 to 9.00
13 | CCC[C@H]1N(C(=O)c2ncccc2C(F)(F)F)CCC[C@@]1(Oc1csc(C(F)(F)F)c1)C(=O)N1Cc2ccc(Cl)cc2C[C@@H]1C[C@H](C)C(=O)O [Compound A137, (2S)-3-[(3S)-6-chloro-2-{[(2R,3S)-2-propyl-1-{[3-(trifluoromethyl)pyridin-2-yl]carbonyl}-3-{[5-(trifluoromethyl)thiophen-3-yl]oxy}piperidin-3-yl]carbonyl}-1,2,3,4-tetrahydroisoquinolin-3-yl]-2-methylpropanoic acid] | 7.00 to 9.00
14 | CCC[C@H]1N(C(=O)c2ncccc2C(F)(F)F)CCC[C@@]1(Oc1csc(C(F)(F)F)c1)C(=O)N1CCc2ccc(F)cc2C1 [Compound A138, 7-fluoro-2-{[(2R,3S)-2-propyl-1-{[3-(trifluoromethyl)pyridin-2-yl]carbonyl}-3-{[5-(trifluoromethyl)thiophen-3-yl]oxy}piperidin-3-yl]carbonyl}-1,2,3,4-tetrahydroisoquinoline] | 4.70 to 7.00
15 | CCC[C@H]1N(C(=O)c2ncccc2C(F)(F)F)CCC[C@@]1(Oc1csc(C(F)(F)F)c1)C(=O)N1CCc2ccc(Cl)cc2C1 [Compound A139, 7-chloro-2-{[(2R,3S)-2-propyl-1-{[3-(trifluoromethyl)pyridin-2-yl]carbonyl}-3-{[5-(trifluoromethyl)thiophen-3-yl]oxy}piperidin-3-yl]carbonyl}-1,2,3,4-tetrahydroisoquinoline] | 4.70 to 7.00
16 | CCC[C@H]1N(C(=O)c2ncccc2C(F)(F)F)CCC[C@@]1(Oc1csc(C(F)(F)F)c1)C(=O)N1CCc2ccc(OC)cc2C1 [Compound A140, 7-methoxy-2-{[(2R,3S)-2-propyl-1-{[3-(trifluoromethyl)pyridin-2-yl]carbonyl}-3-{[5-(trifluoromethyl)thiophen-3-yl]oxy}piperidin-3-yl]carbonyl}-1,2,3,4-tetrahydroisoquinoline] | 4.70 to 7.00
17 | CCC[C@H]1N(C(=O)c2ncccc2C(F)(F)F)CCC[C@@]1(Oc1csc(C(F)(F)F)c1)C(=O)N1Cc2ccc(Cl)cc2C[C@@H]1CCCF [Compound A141, (3S)-6-chloro-3-(3-fluoropropyl)-2-{[(2R,3S)-2-propyl-1-{[3-(trifluoromethyl)pyridin-2-yl]carbonyl}-3-{[5-(trifluoromethyl)thiophen-3-yl]oxy}piperidin-3-yl]carbonyl}-1,2,3,4-tetrahydroisoquinoline] | 4.70 to 7.00
18 | CCC[C@H]1N(C(=O)c2ncccc2C(F)(F)F)CCC[C@@]1(Oc1csc(C(F)(F)F)c1)C(=O)N1CCc2ccc(Br)cc2C1 [Compound A142, 7-bromo-2-{[(2R,3S)-2-propyl-1-{[3-(trifluoromethyl)pyridin-2-yl]carbonyl}-3-{[5-(trifluoromethyl)thiophen-3-yl]oxy}piperidin-3-yl]carbonyl}-1,2,3,4-tetrahydroisoquinoline] | 4.70 to 7.00
19 | CCC[C@H]1N(C(=O)c2ncccc2C(F)(F)F)CCC[C@@]1(Oc1csc(C(F)(F)F)c1)C(=O)N1Cc2ccc(Cl)cc2C[C@H]1CCC(=O)O [Compound A143, 3-[(3R)-6-chloro-2-{[(2R,3S)-2-propyl-1-{[3-(trifluoromethyl)pyridin-2-yl]carbonyl}-3-{[5-(trifluoromethyl)thiophen-3-yl]oxy}piperidin-3-yl]carbonyl}-1,2,3,4-tetrahydroisoquinolin-3-yl]propanoic acid] | 7.00 to 9.00
20 | CCC[C@H]1N(C(=O)c2ncccc2C(F)(F)F)CCC[C@@]1(Oc1csc(C(F)(F)F)c1)C(=O)N1Cc2ccc(F)cc2C[C@@H]1CC(=O)O [Compound A144, [(3R)-6-fluoro-2-{[(2R,3S)-2-propyl-1-{[3-(trifluoromethyl)pyridin-2-yl]carbonyl}-3-{[5-(trifluoromethyl)thiophen-3-yl]oxy}piperidin-3-yl]carbonyl}-1,2,3,4-tetrahydroisoquinolin-3-yl]acetic acid] | 7.00 to 9.00
